# Test results from ChEMBL document CHEMBL1201862, “PubChem BioAssay data set” (2004).
#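 Five concentrations, 48 hours, 96-well plates. GI50 marks 50% less growth.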 Active and inactive are the calls of the source. Cut-off read from the data, not from the text of the source: active = GI50 up to about 1.1 µM and inactive = higher.
# Assays:
# Experiment in all cases: DTP human tumour cell line panel, 48 h
# CAKI-1 = tested on: CAKI-1
# DLD-1 = tested on: DLD-1
# SW-620 = tested on: SW-620
# M14 = tested on: M14
# SK-OV-3 = tested on: SK-OV-3
# HOP-62 = tested on: HOP-62
# K562 = tested on: K562
# XF498 = tested on: XF498
# KM12 = tested on: KM12
# RPMI-8226 = tested on: RPMI-8226
# IGROV-1 = tested on: IGROV-1
# RXF 393 = tested on: RXF 393
# NCI-H522 = tested on: NCI-H522
# LXFL 529 = tested on: LXFL 529
# NCI-H460 = tested on: NCI-H460
# HL-60 = tested on: HL-60
# UO-31 = tested on: UO-31
# HOP-92 = tested on: HOP-92
# OVCAR-4 = tested on: OVCAR-4
# SN12C = tested on: SN12C
# CCRF-CEM = tested on: CCRF-CEM
# SK-MEL-5 = tested on: SK-MEL-5
# SK-MEL-2 = tested on: SK-MEL-2
# NCI-H226 = tested on: NCI-H226
# A549 = tested on: A549
# MOLT-4 = tested on: MOLT-4
# SR = tested on: SR
# OVCAR-5 = tested on: OVCAR-5
# RXF 631 = tested on: RXF 631
# NCI-H23 = tested on: NCI-H23
# SF-539 = tested on: SF-539
# U-251 = tested on: U-251
# UACC-257 = tested on: UACC-257
# EKVX = tested on: EKVX
# HOP-18 = tested on: HOP-18
# HCT-116 = tested on: HCT-116
# UACC-62 = tested on: UACC-62
# HT-29 = tested on: HT-29
# M19-MEL = tested on: M19-MEL
# DMS-114 = tested on: DMS-114
# OVCAR-8 = tested on: OVCAR-8
# SF-268 = tested on: SF-268
# HCT-15 = tested on: HCT-15
# COLO 205 = tested on: COLO 205
# 786-0 = tested on: 786-0
# TK-10 = tested on: TK-10
# SNB-75 = tested on: SNB-75
# KM-20L2 = tested on: KM-20L2
# A498 = tested on: A498
# DMS-273 = tested on: DMS-273
# ACHN = tested on: ACHN
# SNB-78 = tested on: SNB-78
# OVCAR-3 = tested on: OVCAR-3
# SK-MEL-28 = tested on: SK-MEL-28
# LOX IMVI = tested on: LOX IMVI
# Malme-3M = tested on: Malme-3M
# SF-295 = tested on: SF-295
# SNB-19 = tested on: SNB-19
# HCC 2998 = tested on: HCC 2998
smiles,measurement,setting,value
CCCCCCc1cc(C(=O)Nc2ccc(Cl)cc2)nc(S)n1,GI50,CAKI-1,> 100 µM (inactive)
same,GI50,DLD-1,> 10 µM (inactive)
same,GI50,SW-620,> 100 µM (inactive)
same,GI50,M14,> 100 µM (inactive)
same,GI50,SK-OV-3,> 100 µM (inactive)
same,GI50,HOP-62,> 100 µM (inactive)
same,GI50,K562,> 100 µM (inactive)
same,GI50,XF498,> 10 µM (inactive)
same,GI50,KM12,> 100 µM (inactive)
same,GI50,RPMI-8226,> 100 µM (inactive)
same,GI50,IGROV-1,> 100 µM (inactive)
same,GI50,RXF 393,> 10 µM (inactive)
same,GI50,NCI-H522,> 100 µM (inactive)
same,GI50,LXFL 529,> 100 µM (inactive)
same,GI50,NCI-H460,> 10 µM (inactive)
same,GI50,HL-60,> 100 µM (inactive)
same,GI50,UO-31,> 100 µM (inactive)
same,GI50,HOP-92,> 100 µM (inactive)
same,GI50,OVCAR-4,> 100 µM (inactive)
same,GI50,SN12C,> 100 µM (inactive)
same,GI50,CCRF-CEM,> 100 µM (inactive)
same,GI50,SK-MEL-5,> 100 µM (inactive)
same,GI50,SK-MEL-2,> 100 µM (inactive)
same,GI50,NCI-H226,> 10 µM (inactive)
same,GI50,A549,> 100 µM (inactive)
same,GI50,MOLT-4,> 100 µM (inactive)
same,GI50,SR,> 100 µM (inactive)
same,GI50,OVCAR-5,31.1 µM (inactive)
same,GI50,RXF 631,> 100 µM (inactive)
same,GI50,NCI-H23,> 100 µM (inactive)
same,GI50,SF-539,> 100 µM (inactive)
same,GI50,U-251,> 100 µM (inactive)
same,GI50,UACC-257,> 100 µM (inactive)
same,GI50,EKVX,> 100 µM (inactive)
COc1cc2c(c(C)c1O)[C@H]1COc3ccccc3[C@H]1O2,GI50,CAKI-1,9.04 µM (inactive)
same,GI50,DLD-1,24.4 µM (inactive)
same,GI50,SW-620,5.27 µM (inactive)
same,GI50,HOP-18,1.37 µM (inactive)
same,GI50,M14,8.15 µM (inactive)
same,GI50,SK-OV-3,31.8 µM (inactive)
same,GI50,HCT-116,5.71 µM (inactive)
same,GI50,UACC-62,7.89 µM (inactive)
same,GI50,HOP-62,6.59 µM (inactive)
same,GI50,K562,4.29 µM (inactive)
same,GI50,KM12,24.7 µM (inactive)
same,GI50,RPMI-8226,13.8 µM (inactive)
same,GI50,IGROV-1,14.5 µM (inactive)
same,GI50,RXF 393,9.06 µM (inactive)
same,GI50,HT-29,17.7 µM (inactive)
same,GI50,M19-MEL,12.5 µM (inactive)
same,GI50,NCI-H522,3.27 µM (inactive)
same,GI50,DMS-114,5.12 µM (inactive)
same,GI50,OVCAR-8,20.9 µM (inactive)
same,GI50,LXFL 529,14.6 µM (inactive)
same,GI50,SF-268,15.2 µM (inactive)
same,GI50,HCT-15,4.27 µM
same,GI50,COLO 205,18.7 µM (inactive)
same,GI50,786-0,16.6 µM (inactive)
same,GI50,TK-10,31.5 µM (inactive)
same,GI50,SNB-75,3.95 µM (inactive)
same,GI50,KM-20L2,18.2 µM (inactive)
same,GI50,NCI-H460,11.3 µM (inactive)
same,GI50,A498,24.9 µM (inactive)
same,GI50,DMS-273,5.81 µM (inactive)
same,GI50,ACHN,21.2 µM (inactive)
same,GI50,HL-60,2.94 µM (inactive)
same,GI50,SNB-78,23.4 µM (inactive)
same,GI50,UO-31,8.51 µM (inactive)
same,GI50,OVCAR-3,21.9 µM (inactive)
same,GI50,HOP-92,19.5 µM (inactive)
same,GI50,OVCAR-4,17.5 µM (inactive)
same,GI50,SK-MEL-28,12.6 µM (inactive)
same,GI50,CCRF-CEM,13.6 µM (inactive)
same,GI50,SK-MEL-5,10.8 µM (inactive)
same,GI50,LOX IMVI,3.65 µM (inactive)
same,GI50,SK-MEL-2,3.16 µM (inactive)
same,GI50,Malme-3M,22.1 µM (inactive)
same,GI50,NCI-H226,6.25 µM (inactive)
same,GI50,A549,13.2 µM (inactive)
same,GI50,MOLT-4,14.7 µM (inactive)
same,GI50,OVCAR-5,55.3 µM (inactive)
same,GI50,SF-295,27 µM (inactive)
same,GI50,RXF 631,11.6 µM (inactive)
same,GI50,SNB-19,1.49 µM (inactive)
same,GI50,NCI-H23,13.2 µM (inactive)
same,GI50,SF-539,8.41 µM (inactive)
same,GI50,HCC 2998,> 10 µM (inactive)
same,GI50,U-251,> 10 µM (inactive)
same,GI50,UACC-257,12.4 µM (inactive)
same,GI50,EKVX,12.2 µM (inactive)
C=CCCCCCCCCCCCC1CCC(CC)N1 (stereo not drawn),GI50,CAKI-1,11.2 µM (inactive)
same,GI50,DLD-1,3.72 µM (inactive)
same,GI50,SW-620,11.4 µM (inactive)
same,GI50,HOP-18,12.6 µM (inactive)
same,GI50,M14,12.1 µM (inactive)
same,GI50,SK-OV-3,15.1 µM (inactive)
same,GI50,HCT-116,6.04 µM (inactive)
same,GI50,UACC-62,14.2 µM (inactive)
same,GI50,HOP-62,12.3 µM (inactive)
same,GI50,K562,4.7 µM (inactive)
same,GI50,KM12,3.87 µM (inactive)
same,GI50,RPMI-8226,8.28 µM (inactive)
same,GI50,IGROV-1,10.1 µM (inactive)
same,GI50,RXF 393,4.86 µM (inactive)
same,GI50,HT-29,3.67 µM (inactive)
same,GI50,M19-MEL,5.15 µM (inactive)
same,GI50,NCI-H522,3.78 µM (inactive)
same,GI50,DMS-114,5 µM (inactive)
same,GI50,LXFL 529,12.7 µM (inactive)
same,GI50,SF-268,20.6 µM (inactive)
same,GI50,HCT-15,3.4 µM
same,GI50,COLO 205,3.37 µM (inactive)
same,GI50,786-0,9.1 µM (inactive)
same,GI50,TK-10,16.8 µM (inactive)
same,GI50,SNB-75,14.4 µM (inactive)
same,GI50,KM-20L2,4.04 µM (inactive)
same,GI50,NCI-H460,17.7 µM (inactive)
same,GI50,A498,19.5 µM (inactive)
same,GI50,DMS-273,2.33 µM (inactive)
same,GI50,ACHN,15.7 µM (inactive)
same,GI50,HL-60,3.05 µM (inactive)
same,GI50,SNB-78,14.9 µM (inactive)
same,GI50,UO-31,11.2 µM (inactive)
same,GI50,OVCAR-3,9.44 µM (inactive)
same,GI50,OVCAR-4,4.79 µM (inactive)
same,GI50,SN12C,11.5 µM (inactive)
same,GI50,SK-MEL-28,15.7 µM (inactive)
same,GI50,CCRF-CEM,8.3 µM (inactive)
same,GI50,SK-MEL-5,10.2 µM (inactive)
same,GI50,LOX IMVI,9.66 µM (inactive)
same,GI50,SK-MEL-2,13.2 µM (inactive)
same,GI50,Malme-3M,16.3 µM (inactive)
same,GI50,NCI-H226,28.5 µM (inactive)
same,GI50,A549,10.3 µM (inactive)
same,GI50,MOLT-4,4.06 µM (inactive)
same,GI50,SR,2.47 µM (inactive)
same,GI50,OVCAR-5,10.6 µM (inactive)
same,GI50,SF-295,13.8 µM (inactive)
same,GI50,RXF 631,6.19 µM (inactive)
same,GI50,SNB-19,15.5 µM (inactive)
same,GI50,NCI-H23,14.4 µM (inactive)
same,GI50,SF-539,10.6 µM (inactive)
same,GI50,HCC 2998,3.37 µM (inactive)
same,GI50,U-251,10.9 µM (inactive)
same,GI50,UACC-257,13.9 µM (inactive)
same,GI50,EKVX,15.5 µM (inactive)
CCN(CC)CCCCC1CCN(CC(=O)N2c3ccccc3NC(=O)CC2C)CC1 (stereo not drawn),GI50,CAKI-1,> 100 µM (inactive)
same,GI50,SW-620,> 100 µM (inactive)
same,GI50,HOP-18,> 100 µM (inactive)
same,GI50,M14,> 100 µM (inactive)
same,GI50,SK-OV-3,> 100 µM (inactive)
same,GI50,HCT-116,> 100 µM (inactive)
same,GI50,UACC-62,> 100 µM (inactive)
same,GI50,HOP-62,> 100 µM (inactive)
same,GI50,K562,> 100 µM (inactive)
same,GI50,KM12,> 100 µM (inactive)
same,GI50,RPMI-8226,88.1 µM (inactive)
same,GI50,IGROV-1,> 100 µM (inactive)
same,GI50,RXF 393,76.7 µM (inactive)
same,GI50,HT-29,> 100 µM (inactive)
same,GI50,M19-MEL,> 100 µM (inactive)
same,GI50,NCI-H522,30.3 µM (inactive)
same,GI50,DMS-114,69 µM (inactive)
same,GI50,OVCAR-8,> 100 µM (inactive)
same,GI50,LXFL 529,> 100 µM (inactive)
same,GI50,SF-268,> 100 µM (inactive)
same,GI50,HCT-15,> 100 µM
same,GI50,COLO 205,> 100 µM (inactive)
same,GI50,786-0,> 100 µM (inactive)
same,GI50,TK-10,> 100 µM (inactive)
same,GI50,SNB-75,> 100 µM (inactive)
same,GI50,KM-20L2,> 100 µM (inactive)
same,GI50,NCI-H460,> 100 µM (inactive)
same,GI50,A498,> 100 µM (inactive)
same,GI50,DMS-273,> 100 µM (inactive)
same,GI50,ACHN,> 100 µM (inactive)
same,GI50,HL-60,64.1 µM (inactive)
same,GI50,SNB-78,> 100 µM (inactive)
same,GI50,UO-31,> 100 µM (inactive)
same,GI50,OVCAR-3,> 100 µM (inactive)
same,GI50,HOP-92,> 100 µM (inactive)
same,GI50,OVCAR-4,> 100 µM (inactive)
same,GI50,SN12C,> 100 µM (inactive)
same,GI50,SK-MEL-28,> 100 µM (inactive)
same,GI50,CCRF-CEM,65.8 µM (inactive)
same,GI50,SK-MEL-5,98.4 µM (inactive)
same,GI50,LOX IMVI,19.4 µM (inactive)
same,GI50,SK-MEL-2,> 100 µM (inactive)
same,GI50,Malme-3M,> 100 µM (inactive)
same,GI50,NCI-H226,> 100 µM (inactive)
same,GI50,A549,> 100 µM (inactive)
same,GI50,MOLT-4,> 100 µM (inactive)
same,GI50,SR,56.6 µM (inactive)
same,GI50,OVCAR-5,> 100 µM (inactive)
same,GI50,SF-295,> 100 µM (inactive)
same,GI50,RXF 631,30.1 µM (inactive)
same,GI50,SNB-19,> 100 µM (inactive)
same,GI50,NCI-H23,> 100 µM (inactive)
same,GI50,SF-539,> 100 µM (inactive)
same,GI50,HCC 2998,> 100 µM (inactive)
same,GI50,U-251,> 100 µM (inactive)
same,GI50,UACC-257,> 100 µM (inactive)
same,GI50,EKVX,> 100 µM (inactive)
